For test [1], the target named is Sphingosine 1-phosphate receptor 5 (Homo sapiens, UniProt Q9H228). Briefly: S1P5 receptor agonists, human, late-stage follow-up, counter-screen for S1P4 agonist project, cell-based, fluorescence, set 2 (AID 504867). It is filed as functional.
For test [2], the target named is Sphingosine 1-phosphate receptor 3 (Homo sapiens, UniProt Q99500). Briefly: Late-stage fluorescence-based dose-response cell-based counterscreen assay to identify agonists of the Sphingosine 1-Phosphate Receptor 4 (S1P4): Sphingosine 1-Phosphate Receptor 3 (S1P3) agonist assay Set 2. It is filed as functional.
The target of test [3] is Sphingosine 1-phosphate receptor 1 (Homo sapiens, UniProt P21453). Briefly: Late-stage fluorescence-based dose-response cell-based counterscreen assay to identify agonists of the Sphingosine 1-Phosphate Receptor 4 (S1P4): Sphingosine 1-Phosphate Receptor 1 (S1P1) agonist assay Set 2. It is filed as functional. (In general: Counterscreens check selectivity or assay interference.)
Sequence of Sphingosine 1-phosphate receptor 1 (P21453 whole entry): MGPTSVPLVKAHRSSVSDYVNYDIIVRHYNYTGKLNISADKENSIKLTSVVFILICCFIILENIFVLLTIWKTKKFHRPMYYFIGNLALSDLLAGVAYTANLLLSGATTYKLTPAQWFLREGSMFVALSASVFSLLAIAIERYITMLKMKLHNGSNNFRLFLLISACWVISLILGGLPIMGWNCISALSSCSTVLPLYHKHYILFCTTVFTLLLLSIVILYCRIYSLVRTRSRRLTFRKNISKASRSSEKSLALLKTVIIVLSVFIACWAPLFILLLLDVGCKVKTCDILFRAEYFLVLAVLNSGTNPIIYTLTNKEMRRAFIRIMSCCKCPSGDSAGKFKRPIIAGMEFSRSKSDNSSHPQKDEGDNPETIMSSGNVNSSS

Test [4] addresses Sphingosine 1-phosphate receptor 2 (Homo sapiens, UniProt O95136). Briefly: S1P2 receptor agonists, human, late-stage follow-up, counter-screen for S1P4 agonist project, cell-based, fluorescence, set 2 (AID 504873). Format: functional.
In test [5] the target is Lymphokine-activated killer T-cell-originated protein kinase (Homo sapiens, UniProt Q96KB5). Format: functional.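 Also: value comes from a kinase panel screen in which TOPK was one of the panel members.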
Test [6] deals with MAP kinase-activated protein kinase 3 (Homo sapiens, UniProt Q16644). Format: functional.
The target of test [7] is Hepatocyte growth factor receptor (Homo sapiens, UniProt P08581). Format: functional.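 Also: kinase panel profiling across the kinome, with MET as the panel member.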
The target in test [8] is Serine/threonine-protein kinase pim-1 (Homo sapiens, UniProt P11309). It is filed as functional.
Sequence of Serine/threonine-protein kinase pim-1 (P11309 whole entry): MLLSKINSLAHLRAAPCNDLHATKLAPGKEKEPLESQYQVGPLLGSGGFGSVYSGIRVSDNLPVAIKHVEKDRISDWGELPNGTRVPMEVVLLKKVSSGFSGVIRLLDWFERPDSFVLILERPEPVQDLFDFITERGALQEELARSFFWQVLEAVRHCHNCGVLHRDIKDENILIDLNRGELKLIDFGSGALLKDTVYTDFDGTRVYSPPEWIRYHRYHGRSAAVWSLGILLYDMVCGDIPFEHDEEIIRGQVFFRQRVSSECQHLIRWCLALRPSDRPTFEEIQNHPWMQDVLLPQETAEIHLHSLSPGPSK
For test [9], the target named is Leukocyte tyrosine kinase receptor (Homo sapiens, UniProt P29376). Briefly: Navigating the Kinome. Panel member name: LTK. It is filed as functional.
Test [10] has as its target High affinity nerve growth factor receptor (Homo sapiens, UniProt P04629). It is filed as functional.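 Also: NTRK1 tested as one member of a kinome-wide profiling panel.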
The target in test [11] is Cyclin-dependent kinase 19 (Homo sapiens, UniProt Q9BWU1). Briefly: Navigating the Kinome. Panel member name: CDC2L6. It is filed as functional.
The target of another test is Wee1-like protein kinase (Homo sapiens, UniProt P30291). Briefly: Navigating the Kinome. Panel member name: WEE1. It is filed as functional.
Sequence of Wee1-like protein kinase (P30291 whole entry): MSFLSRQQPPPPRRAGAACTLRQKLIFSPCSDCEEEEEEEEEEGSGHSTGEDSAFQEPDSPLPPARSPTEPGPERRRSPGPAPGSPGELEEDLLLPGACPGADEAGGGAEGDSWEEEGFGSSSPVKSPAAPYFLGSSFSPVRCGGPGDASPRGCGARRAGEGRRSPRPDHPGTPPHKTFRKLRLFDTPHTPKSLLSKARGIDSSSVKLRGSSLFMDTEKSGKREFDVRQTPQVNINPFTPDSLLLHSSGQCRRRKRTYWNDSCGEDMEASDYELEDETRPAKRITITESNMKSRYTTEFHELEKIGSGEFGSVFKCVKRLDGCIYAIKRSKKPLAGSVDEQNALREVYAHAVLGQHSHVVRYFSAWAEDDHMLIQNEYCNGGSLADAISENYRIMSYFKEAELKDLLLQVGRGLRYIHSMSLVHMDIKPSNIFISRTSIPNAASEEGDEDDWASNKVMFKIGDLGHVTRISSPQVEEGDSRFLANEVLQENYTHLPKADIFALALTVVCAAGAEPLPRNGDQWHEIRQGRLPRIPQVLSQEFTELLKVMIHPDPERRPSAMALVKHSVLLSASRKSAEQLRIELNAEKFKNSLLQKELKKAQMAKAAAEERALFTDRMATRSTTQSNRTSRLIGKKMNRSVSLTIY
For test [12], the target named is ALK tyrosine kinase receptor (Homo sapiens, UniProt Q9UM73). Format: functional.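 Also: ALK tested as one member of a kinase panel screen.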
For test [13], the target named is FAD-linked sulfhydryl oxidase ALR (Homo sapiens, UniProt P55789). Briefly: inhibitors of human ALR sulfhydryl oxidase, dose response, biochemical, H2O2 detection, luminescence, cherry-pick (AID 493248).
Sequence of FAD-linked sulfhydryl oxidase ALR (P55789 whole entry): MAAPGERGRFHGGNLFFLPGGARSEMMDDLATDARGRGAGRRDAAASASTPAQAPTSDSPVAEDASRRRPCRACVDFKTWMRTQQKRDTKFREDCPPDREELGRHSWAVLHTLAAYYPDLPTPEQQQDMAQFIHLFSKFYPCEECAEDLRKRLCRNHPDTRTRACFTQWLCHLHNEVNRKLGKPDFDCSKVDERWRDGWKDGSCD
Test [14] deals with T1, High affinity choline transporter 1 (Homo sapiens, UniProt Q9GZV3).
T1 sequence (Q9GZV3 whole entry): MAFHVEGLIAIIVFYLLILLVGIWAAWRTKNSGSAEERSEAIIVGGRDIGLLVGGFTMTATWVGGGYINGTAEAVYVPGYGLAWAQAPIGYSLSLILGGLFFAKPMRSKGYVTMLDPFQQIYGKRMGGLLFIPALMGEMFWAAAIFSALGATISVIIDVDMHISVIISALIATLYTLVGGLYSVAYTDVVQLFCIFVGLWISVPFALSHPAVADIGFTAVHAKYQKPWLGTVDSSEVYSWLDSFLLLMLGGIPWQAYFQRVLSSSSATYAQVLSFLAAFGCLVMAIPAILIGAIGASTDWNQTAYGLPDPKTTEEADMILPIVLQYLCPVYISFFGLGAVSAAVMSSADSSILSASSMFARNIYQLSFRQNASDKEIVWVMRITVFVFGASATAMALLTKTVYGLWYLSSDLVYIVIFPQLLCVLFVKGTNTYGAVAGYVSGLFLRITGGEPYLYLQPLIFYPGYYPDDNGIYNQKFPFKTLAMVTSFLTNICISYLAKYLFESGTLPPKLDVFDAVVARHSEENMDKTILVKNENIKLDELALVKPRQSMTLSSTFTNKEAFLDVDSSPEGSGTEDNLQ
Briefly: CHT inhibitors, dose response, cell-based, 5-point CRC, membrane potential dye (AID 504840). It is filed as functional.

Test [15] has as its target T1, High affinity choline transporter 1. Briefly: CHT inhibitors, dose response, cell-based, 10-point CRC, membrane potential dye (AID 588401).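 Also: membrane potential dye fluorescence of choline-evoked depolarization via CHT.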 It is filed as functional.
Test [16] has as its target Neuropeptides B/W receptor type 1 (Homo sapiens, UniProt P48145). Briefly: GPR7 antagonist potency, late-stage follow-up, cell-based, fluorescence, dose response, set 5 (AID 588566). Format: functional.
Test [17] deals with Melanin-concentrating hormone receptor 1 (Homo sapiens, UniProt Q99705). Briefly: Late-stage fluorescence-based counterscreen for antagonists of the G-protein coupled receptor 7 (GPR7): cell-based dose response assay to identify antagonists of the melanin-concentrating hormone receptor 1 (MCHR1) Set 5. It is filed as functional.
In test [18] the target is DNA dC->dU-editing enzyme APOBEC-3A (Homo sapiens, UniProt P31941). Briefly: SAR analysis of small molecule inhibitors of APOBEC3A DNA Deaminase via a fluorescence-based single-stranded DNA deaminase assay. It is filed as functional. To be noted: read-out: IC50_Mean.
Sequence of DNA dC->dU-editing enzyme APOBEC-3A (P31941 whole entry): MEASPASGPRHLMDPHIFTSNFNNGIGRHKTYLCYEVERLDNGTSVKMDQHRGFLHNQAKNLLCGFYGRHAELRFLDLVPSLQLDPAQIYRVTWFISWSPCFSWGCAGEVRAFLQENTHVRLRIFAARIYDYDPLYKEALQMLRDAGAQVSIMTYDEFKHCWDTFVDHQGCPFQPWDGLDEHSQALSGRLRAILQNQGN
For test [19], the target named is DNA dC->dU-editing enzyme APOBEC-3G (Homo sapiens, UniProt Q9HC16). Briefly: APOBEC3G deaminase inhibitors, SAR follow-up, biochemical, fluorescence, single-stranded DNA substrate (AID 602136). It is filed as functional. To be noted: read-out: IC50_Mean.
Sequence of DNA dC->dU-editing enzyme APOBEC-3G (Q9HC16 whole entry): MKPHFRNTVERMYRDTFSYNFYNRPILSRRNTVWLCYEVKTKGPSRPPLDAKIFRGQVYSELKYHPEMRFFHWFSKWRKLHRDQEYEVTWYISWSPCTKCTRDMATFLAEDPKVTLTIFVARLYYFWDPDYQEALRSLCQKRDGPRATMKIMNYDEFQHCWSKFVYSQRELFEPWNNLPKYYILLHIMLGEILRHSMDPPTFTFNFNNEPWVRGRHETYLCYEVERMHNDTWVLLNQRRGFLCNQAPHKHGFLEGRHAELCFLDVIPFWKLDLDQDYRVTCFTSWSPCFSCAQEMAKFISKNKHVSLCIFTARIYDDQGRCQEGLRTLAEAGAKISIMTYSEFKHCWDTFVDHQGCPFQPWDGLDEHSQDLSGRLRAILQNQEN
Test [20] addresses Casein kinase II subunit alpha (Homo sapiens, UniProt P68400). Format: functional.
In test [21] the target is Mitogen-activated protein kinase kinase kinase kinase 5 (Homo sapiens, UniProt Q9Y4K4). It is filed as functional.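 Also: measured as one member of a kinome-spanning kinase panel.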
The target in another test is Aurora kinase B (Homo sapiens, UniProt Q96GD4). It is filed as functional.
Test [22] can be described thus: Vero cell cytotoxicity, dose response, cytotoxicity control for M. tuberculosis growth inhibitor project, Vero cells, purified and synthesized compounds, set 4 (AID 504854). It is filed as functional. To be noted: Mycobacterium tuberculosis.
Test [23] concerns the target Macrophage colony-stimulating factor 1 receptor (Homo sapiens, UniProt P07333). It is filed as functional.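 Also: value comes from the Navigating the Kinome screening panel, CSF1R member.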
Another test concerns the target LIM domain kinase 1 (Homo sapiens, UniProt P53667). Briefly: Navigating the Kinome. Panel member name: LIMK1. It is filed as functional.
Test [24] concerns the target Serine/threonine-protein kinase Chk1 (Homo sapiens, UniProt O14757). It is filed as functional.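 Also: measured as one member of a kinome-wide kinase profiling panel.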

Active and inactive are the calls of the source.

In general, EC50 refers to the midpoint of the concentration-response curve. The term Ki denotes the equilibrium dissociation constant of an inhibitor or competing ligand from its target. For orientation: AC50 means the concentration at which the activity in the assay is half-maximal. What is called CC50 is the concentration giving 50% cytotoxicity.

Sequence of Serine/threonine-protein kinase Chk1 (O14757 whole entry): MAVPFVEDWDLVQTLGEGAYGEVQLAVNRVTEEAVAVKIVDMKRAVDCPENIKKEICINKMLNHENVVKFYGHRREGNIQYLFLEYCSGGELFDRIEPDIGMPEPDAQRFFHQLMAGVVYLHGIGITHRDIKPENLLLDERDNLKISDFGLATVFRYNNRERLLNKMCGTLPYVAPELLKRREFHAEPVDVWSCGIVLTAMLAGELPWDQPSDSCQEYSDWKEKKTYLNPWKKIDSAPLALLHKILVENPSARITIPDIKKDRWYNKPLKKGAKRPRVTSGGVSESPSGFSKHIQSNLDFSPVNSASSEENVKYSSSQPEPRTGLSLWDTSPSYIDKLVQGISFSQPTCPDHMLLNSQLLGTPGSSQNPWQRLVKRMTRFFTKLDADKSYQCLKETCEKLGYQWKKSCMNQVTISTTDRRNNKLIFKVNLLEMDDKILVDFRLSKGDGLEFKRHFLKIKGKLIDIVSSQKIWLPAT
Sequence of Sphingosine 1-phosphate receptor 2 (O95136 whole entry): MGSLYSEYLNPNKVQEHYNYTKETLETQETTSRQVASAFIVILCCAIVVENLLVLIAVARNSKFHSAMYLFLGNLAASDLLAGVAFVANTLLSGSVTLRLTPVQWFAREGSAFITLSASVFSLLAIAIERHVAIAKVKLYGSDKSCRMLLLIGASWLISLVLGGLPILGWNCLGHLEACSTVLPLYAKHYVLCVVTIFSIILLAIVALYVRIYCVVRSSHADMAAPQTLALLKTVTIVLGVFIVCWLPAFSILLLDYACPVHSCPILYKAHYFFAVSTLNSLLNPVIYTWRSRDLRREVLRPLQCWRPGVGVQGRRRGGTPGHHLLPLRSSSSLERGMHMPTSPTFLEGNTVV
Sequence of High affinity nerve growth factor receptor (P04629 whole entry): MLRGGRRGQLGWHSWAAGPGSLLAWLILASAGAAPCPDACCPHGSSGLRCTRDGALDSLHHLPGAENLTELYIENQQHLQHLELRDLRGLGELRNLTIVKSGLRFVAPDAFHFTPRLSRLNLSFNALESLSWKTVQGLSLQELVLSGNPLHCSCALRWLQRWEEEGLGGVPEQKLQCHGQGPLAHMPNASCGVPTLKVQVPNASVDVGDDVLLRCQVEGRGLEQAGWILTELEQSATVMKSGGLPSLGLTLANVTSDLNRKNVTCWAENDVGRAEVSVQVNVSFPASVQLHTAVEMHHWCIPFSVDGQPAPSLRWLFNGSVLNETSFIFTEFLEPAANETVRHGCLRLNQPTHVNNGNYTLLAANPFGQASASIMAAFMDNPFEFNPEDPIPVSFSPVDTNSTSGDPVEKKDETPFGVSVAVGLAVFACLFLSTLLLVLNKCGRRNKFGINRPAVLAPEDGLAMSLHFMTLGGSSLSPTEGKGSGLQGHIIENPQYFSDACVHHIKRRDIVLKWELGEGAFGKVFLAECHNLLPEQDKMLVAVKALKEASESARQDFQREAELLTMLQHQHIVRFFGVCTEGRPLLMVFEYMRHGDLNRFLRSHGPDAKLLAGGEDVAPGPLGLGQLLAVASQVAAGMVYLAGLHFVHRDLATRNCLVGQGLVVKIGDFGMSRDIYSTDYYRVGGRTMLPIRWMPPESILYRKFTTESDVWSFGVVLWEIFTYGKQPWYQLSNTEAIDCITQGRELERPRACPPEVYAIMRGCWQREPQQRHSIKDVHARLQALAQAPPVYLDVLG
Sequence of Macrophage colony-stimulating factor 1 receptor (P07333 whole entry, the tested form may be a part): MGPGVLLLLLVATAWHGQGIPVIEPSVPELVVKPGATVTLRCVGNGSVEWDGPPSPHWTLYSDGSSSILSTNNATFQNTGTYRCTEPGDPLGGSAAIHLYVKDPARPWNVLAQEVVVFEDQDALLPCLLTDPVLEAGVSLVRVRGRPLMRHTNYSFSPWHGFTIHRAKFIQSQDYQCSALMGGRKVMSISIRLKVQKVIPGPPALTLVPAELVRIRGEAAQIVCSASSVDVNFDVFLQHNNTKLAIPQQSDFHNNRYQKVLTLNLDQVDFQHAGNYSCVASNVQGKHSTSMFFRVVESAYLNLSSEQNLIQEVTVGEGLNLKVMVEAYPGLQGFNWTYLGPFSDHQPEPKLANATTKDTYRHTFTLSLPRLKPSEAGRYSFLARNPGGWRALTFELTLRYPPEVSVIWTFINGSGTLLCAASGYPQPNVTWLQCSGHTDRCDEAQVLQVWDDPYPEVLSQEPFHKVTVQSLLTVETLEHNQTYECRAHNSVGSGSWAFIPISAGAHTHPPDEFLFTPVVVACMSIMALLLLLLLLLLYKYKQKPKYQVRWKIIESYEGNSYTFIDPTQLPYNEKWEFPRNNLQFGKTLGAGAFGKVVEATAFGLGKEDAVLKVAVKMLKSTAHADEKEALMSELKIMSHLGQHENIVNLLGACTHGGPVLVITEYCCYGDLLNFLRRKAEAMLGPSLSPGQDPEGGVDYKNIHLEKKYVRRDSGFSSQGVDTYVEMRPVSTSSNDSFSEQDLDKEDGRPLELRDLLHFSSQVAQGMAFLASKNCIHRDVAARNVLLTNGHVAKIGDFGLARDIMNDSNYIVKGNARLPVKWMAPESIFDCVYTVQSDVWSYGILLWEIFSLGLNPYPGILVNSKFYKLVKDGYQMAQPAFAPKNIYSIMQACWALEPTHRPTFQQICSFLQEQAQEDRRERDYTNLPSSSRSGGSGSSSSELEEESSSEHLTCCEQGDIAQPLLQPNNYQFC

For the compound `CC/N=C1/S/C(=C\c2cc(C)n(-c3ccccc3)c2C)C(=O)N1CC`, the 50% effective concentration (EC50) in test [1] was 0.237 µM (active); in test [2] it was > 25 µM (inactive); in test [3], 0.0683 µM (active); in test [4] it was > 25 µM (inactive).
Turning to `COc1cc2ncnc(Nc3ccc(F)c(Cl)c3)c2cc1OCCCN1CCOCC1` [GEFITINIB], the Ki in test [5] and in [6] was > 10 µM (inactive) each time.
Turning to `CCc1cc(-c2n[nH]c(C)c2-c2ccc3c(c2)OCCO3)c(O)cc1O`, the Ki in test [7] was 2.51 µM (active); in test [8] it was 1.58 µM (active); in test [9] it was 2.51 µM (active); in test [10] it was > 15.8 µM (inactive); in [11] it was > 100 µM (inactive).
Turning to `CNc1nc(C)c(-c2ccnc(Nc3ccc(N4CCN(C(C)=O)CC4)cc3)n2)s1`, the Ki at Wee1-like protein kinase was 0.2 µM (active); in [12], 2.51 µM (active).
In the case of `Oc1ccc(CC2CC3CCN2CC3)cc1O` (stereo not drawn), in test [13], the half-maximal activity concentration (AC50) was 3.81 µM (active). For the same compound, the IC50 was 1.08 µM (active) in [14] and 1.15 µM (active) in test [15].
Turning to `CCOc1ccc(Sc2c(Cl)cnn(Cc3cccc4ccccc34)c2=O)cc1`, the IC50 in test [16] was 0.887 µM (active); in [17], > 20 µM (inactive).
Consider `CCc1nnc(NC(=O)Cc2c(F)cccc2Cl)s1`, for which the IC50 in test [18] and in test [19] was > 99 µM (inactive) in each case.
On to `COc1ccc(C=C2C(=O)ON=C2c2ccc(Br)cc2)cc1`, for which the inhibition constant (Ki) in test [8] is 1.58 µM (active); in test [20], 3.98 µM (active); in test [21], 2 µM (active); on Aurora kinase B, 1.58 µM (active).
In the case of `CCC(Sc1nc(O)c2c(n1)CCC2)C(=O)Nc1cccc(OC)c1` (stereo not drawn), the cytotoxic concentration (CC50) in test [22] is > 100 µM (active).
For the compound `c1ccc(-c2ncc3ccccn23)cc1`, the Ki was > 100 µM (inactive) in [23], 10 µM (active) on LIM domain kinase 1 and 25.1 µM (active) in test [24].

For the origin of these results see ChEMBL document CHEMBL1201862, “PubChem BioAssay data set” (2004).
